# Data reported in patent US10052330B2, “Substituted pyrido[3,4-b]pyrazines as Syk inhibitors” (HUTCHISON MEDIPHARMA LIMITED, priority 2011, dated 2018).
# pIC50: −log10 of the molar value.
# What was measured:
# Syk kinase = Syk kinase (Homo sapiens, UniProt P43405); assay: Syk kinase enzymatic assay (Kit-Tyr 2 Peptide); assay type: biochemical; details: 8 concentrations, 1 μM down to 0.0003 μM; upper bound of each range is 'less than'; read-out: IC50: Enzymatic Activity (Syk kinase)
# RBL-2H3 cells = assay: IgE-induced Beta-hexosaminidase secretion in RBL-2H3 cells; assay type: cell-based; details: Rattus norvegicus, RBL-2H3, RBL-2H3 cells sensitized with SPE-7, stimulated with DNP-BSA; upper bound of each range is 'less than'; read-out: IC50, IgE-induced Beta-hexosaminidase secretion
Compound,pIC50 (Syk kinase),pIC50 (RBL-2H3 cells)
c1cnc2c(NCc3cc[nH]n3)nc(-c3ccc(N4CCOCC4)cc3)cc2n1 [Compound 162],6.00 to 7.00,6.00 to 7.00
O=C1CCC(CNc2nc(-c3ccc(N4CCOCC4)cc3)cc3nccnc23)CN1 (centres unmarked) [Compound 168],6.00 to 7.00,6.00 to 7.00
"CC(O)[C@H]1CCN(c2nc(-c3ccc(N4CCOCC4)cc3)cc3nccnc23)C1 (stereo partly drawn) [Compound 174, (S)-1-(1-(7-(4-morpholinophenyl)pyrido[4,3-b]pyrazin-5-yl)pyrrolidin-3-yl)ethanol]",6.00 to 7.00,6.00 to 7.00
"CN(C)c1ccc(-c2cc3nccnc3c(NCCC(N)=O)n2)cc1 [Compound 175, 3-(7-(4-(dimethylamino)phenyl)pyrido[4,3-b]pyrazin-5-ylamino)propanamide]",6.00 to 7.00,6.00 to 7.00
NC(=O)C1CCN(c2nc(-c3ccc(N4CCOCC4)cc3)cc3nccnc23)C1 (centres unmarked) [Compound 179],7.00 to 9.00,6.00 to 7.00
CN1CCN(c2ccc(-c3cc4nccnc4c(NCCCN)n3)cc2)CC1 [Compound 186],7.00 to 9.00,6.00 to 7.00
NCCCNc1nc(-c2ccc(N3CCOCC3)nc2)cc2nccnc12 [Compound 194],6.00 to 7.00,6.00 to 7.00
CCN1CCN(c2ccc(-c3cc4nccnc4c(NCC4CNCCO4)n3)cc2)CC1 (centres unmarked) [Compound 215],7.00 to 9.00,7.00 to 9.00
OCCN1CCN(c2ccc(-c3cc4nccnc4c(NCC4CNCCO4)n3)cc2)CC1 (centres unmarked) [Compound 216],7.00 to 9.00,7.00 to 9.00
CC(C)(O)CN1CCN(c2ccc(-c3cc4nccnc4c(NCC4CNCCO4)n3)cc2)CC1 (centres unmarked) [Compound 217],7.00 to 9.00,7.00 to 9.00
Fc1cc(-c2cc3nccnc3c(NC[C@@H]3CNCCO3)n2)ccc1N1CCCOCC1 [Compound 219],7.00 to 9.00,7.00 to 9.00
Cc1cc(-c2cc3nccnc3c(NCC3CNCCCO3)n2)ccc1N1CCOCC1 (centres unmarked) [Compound 221],7.00 to 9.00,7.00 to 9.00
Fc1cc(-c2cc3nccnc3c(NCC3CNCCCO3)n2)ccc1N1CCOCC1 (centres unmarked) [Compound 222],6.00 to 7.00,6.00 to 7.00
Clc1cc(-c2cc3nccnc3c(NCC3CNCCCO3)n2)ccc1N1CCOCC1 (centres unmarked) [Compound 223],6.00 to 7.00,6.00 to 7.00
FC1(F)CCN(c2ccc(-c3cc4nccnc4c(NC[C@@H]4CNCCO4)n3)cc2)C1 [Compound 226],7.00 to 9.00,7.00 to 9.00
CN(c1ccc(-c2cc3nccnc3c(NCC3CNCCO3)n2)cc1)S(C)(=O)=O (centres unmarked) [Compound 228],7.00 to 9.00,6.00 to 7.00
FC1(F)CCN(c2ccc(-c3cc4nccnc4c(NC[C@@H]4CNCCO4)n3)cc2)CC1 [Compound 229],7.00 to 9.00,7.00 to 9.00
F[C@H]1CCN(c2ccc(-c3cc4nccnc4c(NCC4CNCCO4)n3)cc2)C1 (some centres unmarked) [Compound 231],7.00 to 9.00,7.00 to 9.00

Compound,pIC50 (Syk kinase),pIC50 (RBL-2H3 cells)
Cn1ccc2cc(-c3cc4nccnc4c(NC[C@@H]4CNCCO4)n3)cnc21 [Compound 234],6.00 to 7.00,6.00 to 7.00
Cn1ccc2cc(-c3cc4nccnc4c(NC[C@@H]4CNCCO4)n3)ccc21 [Compound 235],7.00 to 9.00,7.00 to 9.00
CN1CCN(c2ccc(-c3cc4nccnc4c(NC[C@H]4CCCNC4)n3)cc2F)CC1 [Compound 237],7.00 to 9.00,7.00 to 9.00
CCN1CCN(c2ccc(-c3cc4nccnc4c(NC[C@H]4CCCNC4)n3)cc2F)CC1 [Compound 238],7.00 to 9.00,6.00 to 7.00
Fc1cc(-c2cc3nccnc3c(NCC3CNCCS3)n2)ccc1N1CCOCC1 (centres unmarked) [Compound 240],7.00 to 9.00,7.00 to 9.00
CN1CCN(c2ccc(-c3cc4nccnc4c(NCC4CNCCS4)n3)cc2)CC1 (centres unmarked) [Compound 241],7.00 to 9.00,6.00 to 7.00
C[C@@H]1CN(c2ccc(-c3cc4nccnc4c(NC[C@@H]4CNCCO4)n3)cc2F)C[C@H](C)O1 [Compound 247],6.00 to 7.00,7.00 to 9.00
CN(c1ccc(-c2cc3nccnc3c(NC[C@@H]3CNCCO3)n2)cn1)C1CCOCC1 [Compound 264],7.00 to 9.00,7.00 to 9.00
O=C(C1CC1)N1CCN(c2ccc(-c3cc4nccnc4c(NC[C@@H]4CNCCO4)n3)cc2)CC1 [Compound 266],7.00 to 9.00,7.00 to 9.00
c1cnc2c(NC[C@@H]3CNCCO3)nc(-c3ccc(N4CCCOCC4)nc3)cc2n1 [Compound 269],7.00 to 9.00,7.00 to 9.00
O=C(CO)N1CCN(c2ccc(-c3cc4nccnc4c(NC[C@@H]4CNCCO4)n3)cc2)CC1 [Compound 272],7.00 to 9.00,7.00 to 9.00
CS(=O)(=O)CC(=O)N1CCN(c2ccc(-c3cc4nccnc4c(NC[C@@H]4CNCCO4)n3)cc2)CC1 [Compound 280],7.00 to 9.00,6.00 to 7.00
CN(c1ccc(-c2cc3nccnc3c(NC[C@@H]3CNCCO3)n2)cc1)C1CCOCC1 [Compound 285],7.00 to 9.00,7.00 to 9.00
OCCOC1CCN(c2ccc(-c3cc4nccnc4c(NC[C@@H]4CNCCO4)n3)cc2)CC1 [Compound 286],7.00 to 9.00,7.00 to 9.00
CCS(=O)(=O)N1CCN(c2ccc(-c3cc4nccnc4c(NC[C@@H]4CNCCO4)n3)cc2F)CC1 [Compound 287],7.00 to 9.00,7.00 to 9.00
FC1(CNc2nc(-c3cnn(C4CCCC4)c3)cc3nccnc23)CCCNC1 (centres unmarked) [Compound 289],7.00 to 9.00,7.00 to 9.00
CNc1ccc(-c2cc3nccnc3c(NCC3CNCCC3(F)F)n2)cc1 (centres unmarked) [Compound 291],7.00 to 9.00,7.00 to 9.00

# Further lines, with some results ahead:
pIC50 (Syk kinase),Compound,pIC50 (RBL-2H3 cells)
6.00 to 7.00,"NC(=O)NC[C@@H]1CCN(c2nc(-c3ccc(N4CCOCC4)cc3)cc3nccnc23)C1 [Compound 150, (S)-1-((1-(7-(4-morpholinophenyl)pyrido[4,3-b]pyrazin-5-yl)pyrrolidin-3-yl)methyl)urea]",6.00 to 7.00
6.00 to 7.00,NC(=O)NC[C@H]1CCN(c2nc(-c3ccc(N4CCOCC4)cc3)cc3nccnc23)C1 [Compound 151],6.00 to 7.00
7.00 to 9.00,FC1=CC(CNc2nc(-c3ccc(N4CCOCC4)cc3)cc3nccnc23)CNC1 (centres unmarked) [Compound 157],7.00 to 9.00
6.00 to 7.00,CN(C)c1ccc(-c2cc3nccnc3c(N3CC[C@H](CO)C3)n2)cc1 [Compound 164],6.00 to 7.00
6.00 to 7.00,CN(C)c1ccc(-c2cc3nccnc3c(N3CC[C@@H](CO)C3)n2)cc1 [Compound 165],7.00 to 9.00
6.00 to 7.00,CN(C)c1ccc(-c2cc3nccnc3c(NCCS(N)(=O)=O)n2)cc1 [Compound 166],6.00 to 7.00
6.00 to 7.00,NS(=O)(=O)CCNc1nc(-c2ccc(N3CCOCC3)cc2)cc2nccnc12 [Compound 167],6.00 to 7.00
6.00 to 7.00,c1cnc2c(NCCc3c[nH]cn3)nc(-c3ccc(N4CCOCC4)cc3)cc2n1 [Compound 172],6.00 to 7.00
6.00 to 7.00,COc1ccc(-c2cc3nccnc3c(NCCC(N)=O)n2)cc1F [Compound 176],6.00 to 7.00
6.00 to 7.00,NC(=O)CCNc1nc(-c2ccc(N3CCCC3)cc2)cc2nccnc12 [Compound 177],7.00 to 9.00
7.00 to 9.00,FC1(F)CCNCC1CNc1nc(-c2ccc(N3CCOCC3)c(Cl)c2)cc2nccnc12 (centres unmarked) [Compound 205],7.00 to 9.00
7.00 to 9.00,CC1CN(c2ccc(-c3cc4nccnc4c(NC[C@@H]4CNCCO4)n3)cc2)CCO1 (some centres unmarked) [Compound 208],7.00 to 9.00
7.00 to 9.00,c1cnc2c(NC[C@@H]3CNCCO3)nc(-c3ccc(N4CCCOCC4)cc3)cc2n1 [Compound 218],7.00 to 9.00
6.00 to 7.00,c1cnc2c(NCC3CNCCCO3)nc(-c3ccc(N4CCOCC4)cc3)cc2n1 (centres unmarked) [Compound 220],6.00 to 7.00
7.00 to 9.00,FC1(CNc2nc(-c3ccc(N4CCOCC4)cc3)cc3nccnc23)CCCNC1 (centres unmarked) [Compound 251],7.00 to 9.00
7.00 to 9.00,CN1CCN(c2ccc(-c3cc4nccnc4c(NCC4(F)CCCNC4)n3)cc2)CC1 (centres unmarked) [Compound 253],6.00 to 7.00
7.00 to 9.00,Fc1cc(-c2cc3nccnc3c(NCC3(F)CCCNC3)n2)ccc1N1CCOCC1 (centres unmarked) [Compound 254],7.00 to 9.00
6.00 to 7.00,COc1ccc(-c2cc3nccnc3c(NCC3(F)CCCNC3)n2)cc1F (centres unmarked) [Compound 255],7.00 to 9.00
6.00 to 7.00,CN1CCN(c2ccc(-c3cc4nccnc4c(NC[C@@H]4CNCCO4)n3)cn2)CC1 [Compound 259],6.00 to 7.00
6.00 to 7.00,CN1CCCN(c2ccc(-c3cc4nccnc4c(NC[C@@H]4CNCCO4)n3)cn2)CC1 [Compound 260],6.00 to 7.00
6.00 to 7.00,c1cnc2c(NC[C@@H]3CNCCO3)nc(-c3cnn(C4CCOCC4)c3)cc2n1 [Compound 261],6.00 to 7.00
7.00 to 9.00,CCC(=O)N1CCN(c2ccc(-c3cc4nccnc4c(NC[C@@H]4CNCCO4)n3)cc2)CC1 [Compound 267],7.00 to 9.00
7.00 to 9.00,CN(C)C(=O)C1CCN(c2ccc(-c3cc4nccnc4c(NC[C@@H]4CNCCO4)n3)cc2)CC1 [Compound 270],6.00 to 7.00
7.00 to 9.00,CC(C)(O)C1CCN(c2ccc(-c3cc4nccnc4c(NC[C@@H]4CNCCO4)n3)cc2)CC1 [Compound 275],7.00 to 9.00
7.00 to 9.00,CC(Nc1nc(-c2ccc(N3CCOCC3)cc2)cc2nccnc12)C1CNCCO1 (centres unmarked) [Compound 276],7.00 to 9.00
7.00 to 9.00,CC(Nc1nc(-c2ccc(N3CCOCC3)c(F)c2)cc2nccnc12)C1CNCCO1 (centres unmarked) [Compound 278],7.00 to 9.00
7.00 to 9.00,COCC(=O)N1CCN(c2ccc(-c3cc4nccnc4c(NC[C@@H]4CNCCO4)n3)cc2)CC1 [Compound 279],7.00 to 9.00
7.00 to 9.00,FC1(CNc2nc(-c3cnn(C4CCOCC4)c3)cc3nccnc23)CCCNC1 (centres unmarked) [Compound 290],7.00 to 9.00
7.00 to 9.00,FC1(F)CCNCC1CNc1nc(-c2ccc(N3CCOCC3)nc2)cc2nccnc12 (centres unmarked) [Compound 292],7.00 to 9.00
